In ChEMBL document CHEMBL6083227, “Novel sulfonamides unveiled as potent anti-lung cancer agents via tumor pyruvate kinase M2 activation” (RSC Med Chem, 2024):

Molecular target: Pyruvate kinase PKM (Homo sapiens, UniProt P14618)
Assay: Activation of recombinant human PKM2 using pyruvate as substrate measured for 20 mins in presence of beta-NADH by LDH-coupled assay
Settings: not given

Pyruvate kinase PKM, sequence (P14618 whole entry): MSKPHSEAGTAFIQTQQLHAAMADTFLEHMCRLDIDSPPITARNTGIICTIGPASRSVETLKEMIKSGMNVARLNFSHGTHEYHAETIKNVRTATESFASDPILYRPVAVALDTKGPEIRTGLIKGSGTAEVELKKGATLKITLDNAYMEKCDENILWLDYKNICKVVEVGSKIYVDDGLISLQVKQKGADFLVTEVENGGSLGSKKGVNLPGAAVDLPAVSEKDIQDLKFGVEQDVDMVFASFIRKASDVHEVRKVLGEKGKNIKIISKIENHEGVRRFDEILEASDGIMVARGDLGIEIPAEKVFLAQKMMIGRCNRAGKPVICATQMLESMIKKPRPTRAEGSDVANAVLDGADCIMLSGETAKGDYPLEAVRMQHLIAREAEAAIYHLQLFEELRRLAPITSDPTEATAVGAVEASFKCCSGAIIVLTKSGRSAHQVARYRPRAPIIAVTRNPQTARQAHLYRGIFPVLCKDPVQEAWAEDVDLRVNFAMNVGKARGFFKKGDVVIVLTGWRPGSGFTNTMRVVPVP

| SMILES | EC50 [µM] |
| --- | --- |
| COc1ccc(-c2ccc(S(=O)(=O)N3CCN(CC(=O)c4cnc5ncccn45)CC3)cc2)cc1 | 0.435 |
| O=C(CN1CCN(S(=O)(=O)C2CC2)CC1)c1cnc2ncccn12 | 0.092 |
| O=C(CN1CCN(S(=O)(=O)c2ccccc2)CC1)c1cnc2ccccn12 | 0.141 |
| COc1ccc(Br)cc1S(=O)(=O)N1CCN(CC(=O)c2cnc3ccccn23)CC1 | 0.329 |
| O=C(CN1CCN(S(=O)(=O)c2ccc(C(F)(F)F)cc2)CC1)c1cnc2ncccn12 | 0.211 |
| Cc1cc(C)c(S(=O)(=O)N2CCN(CC(=O)c3cnc4ccccn34)CC2)c(C)c1 | 0.181 |
| O=C(CN1CCN(S(=O)(=O)C2CCCCC2)CC1)c1cnc2ccccn12 | 0.889 |
| O=C(CN1CCN(S(=O)(=O)c2ccc([N+](=O)[O-])cc2)CC1)c1cnc2ccccn12 | 0.649 |
| O=C(CN1CCN(S(=O)(=O)c2ccc(F)cc2Cl)CC1)c1cnc2ncccn12 | 0.612 |
| N#Cc1ccccc1S(=O)(=O)N1CCN(CC(=O)c2cnc3ccccn23)CC1 | 0.147 |
| O=C(CN1CCN(S(=O)(=O)c2ccc(F)cc2Cl)CC1)c1cnc2ccccn12 | 0.205 |
| O=C(CN1CCN(S(=O)(=O)c2cc(F)ccc2F)CC1)c1cnc2ncccn12 | 0.648 |
| O=C(CN1CCN(S(=O)(=O)c2cccc(Br)c2)CC1)c1cnc2ccccn12 | 0.606 |
| Cc1ccc(S(=O)(=O)N2CCN(CC(=O)c3cnc4ncccn34)CC2)cc1 | 0.105 |
| O=C(CN1CCN(S(=O)(=O)c2cccs2)CC1)c1cnc2ccccn12 | 0.134 |
| O=C(CN1CCN(S(=O)(=O)c2cccc(Br)c2)CC1)c1cnc2ncccn12 | 0.634 |
| O=C(CN1CCN(S(=O)(=O)c2ccc(F)cc2)CC1)c1cnc2ccccn12 | 0.382 |
| O=C(CN1CCN(S(=O)(=O)c2ccc(C(F)(F)F)cc2)CC1)c1cnc2ccccn12 | 0.55 |
| COc1ccc(S(=O)(=O)N2CCN(CC(=O)c3cnc4ccccn34)CC2)cc1 | 0.042 |

Test system: A549
Assay: Antiproliferative activity against human A549 cells incubated for 48 hrs by Alamar blue staining based assay
Settings: A549, 48 h

| SMILES | IC50 [µM] |
| --- | --- |
| COc1ccc(-c2ccc(S(=O)(=O)N3CCN(CC(=O)c4cnc5ncccn45)CC3)cc2)cc1 | 1.6 |
| O=C(CN1CCN(S(=O)(=O)C2CC2)CC1)c1cnc2ncccn12 | 1.76 |
| O=C(CN1CCN(S(=O)(=O)c2ccccc2)CC1)c1cnc2ccccn12 | 1.69 |
| Nc1cccc(S(=O)(=O)N2CCCN(S(=O)(=O)c3ccc4c(c3)OCCO4)CC2)c1 | 1.46 |
| COc1ccc(Br)cc1S(=O)(=O)N1CCN(CC(=O)c2cnc3ccccn23)CC1 | 1.44 |
| O=C(CN1CCN(S(=O)(=O)c2ccc(C(F)(F)F)cc2)CC1)c1cnc2ncccn12 | 1.23 |
| Cc1cc(C)c(S(=O)(=O)N2CCN(CC(=O)c3cnc4ccccn34)CC2)c(C)c1 | 1.68 |
| O=C(CN1CCN(S(=O)(=O)C2CCCCC2)CC1)c1cnc2ccccn12 | 1.65 |
| COc1cccc2c1C(=O)c1c(O)c3c(c(O)c1C2=O)C[C@@](O)(C(=O)CO)C[C@@H]3O[C@H]1C[C@H](N)[C@H](O)[C@H](C)O1 [DOXORUBICIN] | 1.64 |
| O=C(CN1CCN(S(=O)(=O)c2ccc([N+](=O)[O-])cc2)CC1)c1cnc2ccccn12 | 1.46 |
| O=C(CN1CCN(S(=O)(=O)c2ccc(F)cc2Cl)CC1)c1cnc2ncccn12 | 1.72 |
| N#Cc1ccccc1S(=O)(=O)N1CCN(CC(=O)c2cnc3ccccn23)CC1 | 1.51 |
| O=C(CN1CCN(S(=O)(=O)c2ccc(F)cc2Cl)CC1)c1cnc2ccccn12 | 0.95 |
| O=C(CN1CCN(S(=O)(=O)c2cc(F)ccc2F)CC1)c1cnc2ncccn12 | 1.26 |
| O=C(CN1CCN(S(=O)(=O)c2cccc(Br)c2)CC1)c1cnc2ccccn12 | 1.67 |
| Cc1ccc(S(=O)(=O)N2CCN(CC(=O)c3cnc4ncccn34)CC2)cc1 | 1 |
| O=C(CN1CCN(S(=O)(=O)c2cccs2)CC1)c1cnc2ccccn12 | 1.14 |
| O=C(CN1CCN(S(=O)(=O)c2cccc(Br)c2)CC1)c1cnc2ncccn12 | 1.14 |
| O=C(CN1CCN(S(=O)(=O)c2ccc(F)cc2)CC1)c1cnc2ccccn12 | 1.68 |
| O=C(CN1CCN(S(=O)(=O)c2ccc(C(F)(F)F)cc2)CC1)c1cnc2ccccn12 | 1.3 |
| COc1ccc(S(=O)(=O)N2CCN(CC(=O)c3cnc4ccccn34)CC2)cc1 | 1.83 |

Test system: BEAS-2B
Assay: Antiproliferative activity against human BEAS-2B cells incubated for 48 hrs by Alamar blue staining based assay
Settings: not given

| SMILES | IC50 [µM] |
| --- | --- |
| COc1ccc(-c2ccc(S(=O)(=O)N3CCN(CC(=O)c4cnc5ncccn45)CC3)cc2)cc1 | 9.13 |
| O=C(CN1CCN(S(=O)(=O)C2CC2)CC1)c1cnc2ncccn12 | 53.5 |
| O=C(CN1CCN(S(=O)(=O)c2ccccc2)CC1)c1cnc2ccccn12 | 44.7 |
| Nc1cccc(S(=O)(=O)N2CCCN(S(=O)(=O)c3ccc4c(c3)OCCO4)CC2)c1 | 35.2 |
| COc1ccc(Br)cc1S(=O)(=O)N1CCN(CC(=O)c2cnc3ccccn23)CC1 | 30.9 |
| O=C(CN1CCN(S(=O)(=O)c2ccc(C(F)(F)F)cc2)CC1)c1cnc2ncccn12 | 15.9 |
| Cc1cc(C)c(S(=O)(=O)N2CCN(CC(=O)c3cnc4ccccn34)CC2)c(C)c1 | 11.5 |
| O=C(CN1CCN(S(=O)(=O)C2CCCCC2)CC1)c1cnc2ccccn12 | 60.6 |
| COc1cccc2c1C(=O)c1c(O)c3c(c(O)c1C2=O)C[C@@](O)(C(=O)CO)C[C@@H]3O[C@H]1C[C@H](N)[C@H](O)[C@H](C)O1 [DOXORUBICIN] | 24.7 |
| O=C(CN1CCN(S(=O)(=O)c2ccc([N+](=O)[O-])cc2)CC1)c1cnc2ccccn12 | 20.1 |
| O=C(CN1CCN(S(=O)(=O)c2ccc(F)cc2Cl)CC1)c1cnc2ncccn12 | 16.8 |
| N#Cc1ccccc1S(=O)(=O)N1CCN(CC(=O)c2cnc3ccccn23)CC1 | 55.7 |
| O=C(CN1CCN(S(=O)(=O)c2ccc(F)cc2Cl)CC1)c1cnc2ccccn12 | 37.8 |
| O=C(CN1CCN(S(=O)(=O)c2cc(F)ccc2F)CC1)c1cnc2ncccn12 | 26.5 |
| O=C(CN1CCN(S(=O)(=O)c2cccc(Br)c2)CC1)c1cnc2ccccn12 | 39.9 |
| Cc1ccc(S(=O)(=O)N2CCN(CC(=O)c3cnc4ncccn34)CC2)cc1 | 39.6 |
| O=C(CN1CCN(S(=O)(=O)c2cccs2)CC1)c1cnc2ccccn12 | 30.5 |
| O=C(CN1CCN(S(=O)(=O)c2cccc(Br)c2)CC1)c1cnc2ncccn12 | 39 |
| O=C(CN1CCN(S(=O)(=O)c2ccc(F)cc2)CC1)c1cnc2ccccn12 | 52.2 |
| O=C(CN1CCN(S(=O)(=O)c2ccc(C(F)(F)F)cc2)CC1)c1cnc2ccccn12 | 61.4 |
| COc1ccc(S(=O)(=O)N2CCN(CC(=O)c3cnc4ccccn34)CC2)cc1 | 46.1 |
